Laboratory results: paper PMC8962522, “Direct interaction of TrkA/CD44v3 is essential for NGF-promoted aggressiveness of breast cancer cells” (Journal of Experimental & Clinical Cancer Research : CR, 2022)

Key:
[1] = system: CD44v3 in MDA-MB-231 cells; assay: Immunofluorescence, membrane CD44v3; type: cell-based; details: MDA-MB-231, immunofluorescence/confocal, NGF
Description: (§1) The CD44v3- and CD44v6-containing isoforms expressing respectively exon 8 and 11(Fig. 1A) can interact with growth factor receptors. Using COS-7 cells with low CD44 and TrkA expression (Supplementary Fig. 1A-D), we differentially expressed TrkA and CD44s or a CD44 variant, either CD44v3 or CD44v6 (Fig. 1B, supplementary Fig. 2). […] Additionally, we evaluated the expression of TrkA and CD44v3 at the membrane level or in cells by immunofluorescence in MDA-MB-231 cells.
(§2) Supplementary file 13046_2022_2314_MOESM3_ESM.pdf: Additional file 3: Supplementary Figure 1. Validation of the ectopic expression of CD44 and/or TrkA in COS-7 cells. The expression of all CD44 isoforms (A), CD44 variant 3 (B), CD44 variant 6 (C) and TrkA ([…]; D) was evaluated by RT–qPCR (normalized using PUM-1). No expression of CD44, CD44 variants [3 or 6] or TrkA was detected in COS-7 cells (A-D) compared with that in cells transfected with the expression plasmid carrying each protein. […] Quantification of the PLA results was performed using ImageJ software (30 randomly chosen fields per condition of three different experiments). […] CD44v3 and CD44v6 levels at the plasma membrane were assessed by flow cytometry (A-D). The plasma membrane and total TrkA and CD44v3 levels were also quantified by confocal microscopy (E-H). […] The CD44v3/NGF interaction was evaluated using microscale thermophoresis (MST). […]

[2] = system: CD44v3 in MDA-MB-231 cells; assay: Flow cytometry, plasma membrane CD44v3; type: cell-based; details: MDA-MB-231, flow cytometry
Description: as §1, §2

## NGF: recombinant human β-NGF (Alomone Labs, Israel)
[1]
  level of CD44v3 at the membrane (in words): increased at the membrane until 15 min of NGF treatment and then decreased
[2]; CD44v3-APC, histogram with No stim., NGF (5 min), NGF (30 min)
  increase of plasma membrane CD44v3: 33%
[2]; NGF stimulation
  plasma membrane level of CD44v3 (in words): increased the plasma membrane level of CD44v3
